Measurements published in patent publication US12377052B2, “Dual-responsive nanoparticles for enhanced antibacterial efficacy” (priority 2020, dated 2025).
Converted amounts (≈) assume the structure as drawn. Like-named read-outs stand apart in the source and are kept apart here.

Key:
MRSA (ATCC 33591) = test: MIC, broth microdilution; assay type: cell-based, S. aureus
Protocol: (§1) Bacterial strains. S. aureus Newman was kindly provided by Prof. Douglas Weibel; E. coli ATCC25922, S. aureus ATCC 33591 and P. aeruginosa ATCC 27853 were purchased from ATCC. E. coli DH5a was purchased from Thermo Fisher. These bacteria were grown in Mueller Hinton Broth (MHB) media (Criterion, Santa Maria, CA, USA). M. smegmatis mc^2155 strain was kindly provided by Prof. Adel M. Talaat's laboratory, and it was grown in Middlebrook 7H9 broth (HiMedia, West Chester, PA, USA).
(§2) Minimal inhibitory concentration (MIC) measurements. The MIC of the different treatments on various bacteria strains was determined using the Clinical Laboratory Standards Institute broth microdilution method^8. Briefly, broth media (100 μL) containing two-fold serial dilutions of each compound were placed into a 96-well tissue culture plate. Each bacterial strain was taken from an exponentially growing culture and diluted to 5×10^6 CFU/mL. Ten microliters of such microbial suspension was inoculated in each well of the plate, resulting in a final bacteria concentration of approximately 5×10^5 CFU/mL. The bacteria were cultured at 37° C. for one day and their growth was observed by reading the optical density (OD) at 600 nm. The MIC was determined as the treatment concentration at which no microbial growth was observed. Broth containing microbial cells alone was used as a positive control and broth without bacteria inoculation was used as a negative control. Each test was carried out in 3 replicates.

MRSA = test: Checkerboard assay, FIC index; assay type: cell-based, S. aureus; conditions: antibiotic with the PBAE-G polymer
Protocol: (§3) Fractional inhibitory concentration (FIC) measurement. The synergy between the cationic polymer and antibiotic was assessed by checkerboard assays. The two antibacterial components were mixed in a 96-well plate with serial two-dimensional dilutions. Bacteria were inoculated in each well of the plate and their growth, reflected by the OD600 value, was monitored. The synergy effect was evaluated by calculating the FIC index according to the formula below:
(§4) [formula] MICA^Comb and MICB^Comb indicate the MICS of the two components in combination. The interactions between the two components are defined according to standard criteria of considering FIC≤0.5 as synergistic; 0.5<FIC≤1 as additive; 1<FIC≤4 as indifference; and FIC>4 as antagonism.

[1] = test system: P. aeruginosa (ATCC 27853); test: Checkerboard assay, FIC index; assay type: cell-based; conditions: for FIC index: antibiotic with the PBAE-G polymer
Protocol: as §3, §4

[2] = test system: P. aeruginosa (ATCC 27853); test: MIC, broth microdilution; assay type: cell-based
Protocol: as §1, §2

MRSA biofilm = test: Biofilm inhibition assay (crystal violet); assay type: cell-based, S. aureus; conditions: 32 μg/mL
Protocol: Biofilm inhibition assays. Exponentially growing bacteria were inoculated into 96 well plates (1×10^4 cell/well) containing MHB broth with 2% (w/v) glucose, and incubated under stationary conditions at 37° C. for one day. After biofilm formation, the medium was discarded, and the plates were washed with PBS to remove the planktonic bacteria. Fresh MHB broth containing serially diluted free rifampicin or NP was added to the plates and incubated at 37° C. for another 24 h. The media in each well was then removed, and the plates were washed carefully with PBS one time. The biofilm in each well was fixed with 95% ethanol for 15 min and stained with 0.1% crystal violet for 15 min. After the biofilm was washed with Milli-Q water for three times, 33% v/v acetic acid (100 μL/well) was added to the plate to solubilize the crystal violet staining. OD 560 in each well was read to assess the biofilm formation.

M. smegmatis (MC^2 155) [3] = test: Checkerboard assay, FIC index; assay type: cell-based; conditions: low pH and high ROS condition
Protocol: as §3, §4

E. coli (DH5 alpha) = test: MIC, broth microdilution; assay type: cell-based; conditions: Escherichia coli; no pH/H2O2 stimulus stated
Protocol: as §1, §2

E. coli (ATCC 25922) = test: MIC, broth microdilution; assay type: cell-based; conditions: Escherichia coli, ATCC25922; no pH/H2O2 stimulus stated
Protocol: as §1, §2

M. smegmatis (MC^2 155) [4] = test: MIC, broth microdilution; assay type: cell-based; conditions: Mycolicibacterium smegmatis, MC^2155; no pH/H2O2 stimulus stated
Protocol: as §1, §2

S. aureus (Newman) = test: MIC, broth microdilution; assay type: cell-based; conditions: Staphylococcus aureus, no pH/H2O2 stimulus stated
Protocol: as §1, §2

E. coli ATCC 25922 = test: Evaluation of antibiotic resistance development (serial passaging); assay type: cell-based; conditions: sub-lethal dose (0.5 MIC), after 20 passages
Protocol: Evaluation of antibiotic resistance development. […] The OD 600 value in each tube was examined to determine the MIC, and the bacteria cultured in the tube containing rifampicin at a ½ MIC was used for passage. The MIC for each passage was recorded and compared to that of the first passage to determine the drug resistance enhancement.

[5] = test system: Raw 264.7 murine macrophage cells; test: Cell viability test (MTT assay); assay type: cell-based; conditions: Mus musculus, RAW264.7, 24 h, one day treatment
Protocol: Cell viability test. Cytotoxicity of different NP components was tested using MTT assays. Raw 264.7 murine macrophage cells were seeded onto a 96-well plate (1×10^4 cells/well) and cultured overnight. The cells were then treated with free antibiotic, PBAE-G polymer or NP with serial dilutions for one day and their viability was measured by a standard MTT assay. Data were collected by monitoring the difference between the absorbance at 560 nm and 650 nm using a GloMax-Multi Microplate Multimode Reader (Promega, WI, USA).

[6] = Table 1, antibiotic alone, in µg/mL (unit assumed)

Molecule	MIC (MRSA (ATCC 33591); Table 1, antibiotic alone) [µg/mL]	FIC index (MRSA)	FIC index [1]	MIC [2, 6]	MIC (MRSA (ATCC 33591); Staphylococcus aureus, no pH/H2O2 stimulus stated, read-out: MIC MRSA (ATCC 33591)) [µg/mL]	biofilm remained (MRSA biofilm)	FIC index between rifampicin and the PBAE-G-B polymer ([1]; low pH and high ROS condition)	FIC index between rifampicin and the PBAE-G-B polymer (M. smegmatis (MC^2 155) [3])	MIC (E. coli (DH5 alpha)) [µg/mL]	MIC (E. coli (ATCC 25922)) [µg/mL]	MIC ([2]; Pseudomonas aeruginosa, ATCC27853, no pH/H2O2 stimulus stated, read-out: MIC P. aeruginosa (ATCC 27853)) [µg/mL]	MIC (M. smegmatis (MC^2 155) [4]) [µg/mL]	MIC (S. aureus (Newman)) [µg/mL]	MIC increase compared to initial (E. coli ATCC 25922) [fold]	IC50 [5] [µg/mL]
Gentamicin	1	0.5	0.375	1	–	–	–	–	–	–	–	–	–	–	–
O=C(O)c1cn(C2CC2)c2cc(N3CCNCC3)c(F)cc2c1=O [Ciprofloxacin]	0.5 (≈ 1.51 µM)	2	1	0.25	–	–	–	–	–	–	–	–	–	–	–
CN[C@H](CC(C)C)C(=O)N[C@H]1C(=O)N[C@@H](CC(N)=O)C(=O)N[C@H]2C(=O)N[C@H]3C(=O)N[C@H](C(=O)N[C@H](C(=O)O)c4cc(O)cc(O)c4-c4cc3ccc4O)[C@H](O)c3ccc(c(Cl)c3)Oc3cc2cc(c3O[C@@H]2O[C@H](CO)[C@@H](O)[C@H](O)[C@H]2O[C@H]2C[C@](C)(N)[C@H](O)[C@H](C)O2)Oc2ccc(cc2Cl)[C@H]1O [Vancomycin]	1 (≈ 0.69 µM)	1	2	1024	–	–	–	–	–	–	–	–	–	–	–
CC1(C)S[C@@H]2[C@H](NC(=O)[C@H](N)c3ccc(O)cc3)C(=O)N2[C@H]1C(=O)O [Amoxicillin]	128 (≈ 350 µM)	0.75	2	1024	–	–	–	–	–	–	–	–	–	–	–
[H]/N=C(/N)N[C@H]1[C@H](O)[C@@H](O)[C@H](O[C@@H]2O[C@@H](C)[C@](O)(C=O)[C@H]2O[C@@H]2O[C@@H](CO)[C@H](O)[C@@H](O)[C@@H]2NC)[C@@H](N/C(N)=N\[H])[C@@H]1O [Streptomycin]	16 (≈ 27.5 µM)	0.266	0.25	16	–	–	–	–	–	–	–	–	–	–	–
CCC[C@@H]1C[C@@H](C(=O)N[C@@H]([C@H]2O[C@H](SC)[C@H](O)[C@@H](O)[C@H]2O)[C@H](C)Cl)N(C)C1 [Clindamycin]	32 (≈ 75.3 µM)	0.562	<0.25	>1024	–	–	–	–	–	–	–	–	–	–	–
CO[C@H]1/C=C/O[C@@]2(C)Oc3c(C)c(O)c4c(O)c(c(/C=N/N5CCN(C)CC5)c(O)c4c3C2=O)NC(=O)/C(C)=C\C=C\[C@H](C)[C@H](O)[C@@H](C)[C@@H](O)[C@@H](C)[C@H](OC(C)=O)[C@@H]1C [Rifampicin]	0.016 (≈ 0.0194 µM)	1	0.25	32	0.016 (≈ 0.0194 µM)	More than 80%	0.188	0.25	16 (≈ 19.4 µM)	16 (≈ 19.4 µM)	32 (≈ 38.9 µM)	128 (≈ 156 µM)	0.016 (≈ 0.0194 µM)	40	210 (≈ 255 µM)
